Experimental data published in the NIST ThermoML archive (doi:10.1021/je5004719).

Test: xn = mol fraction of the nth substance listed
Conditions: 101 kPa, Liquid; for speed of sound: Sing-around technique in a fixed-path interferometer; for mass density: Vibrating tube method

Cc1ccccc1Cl [2-chlorotoluene] + Cc1ccccc1
Conditions | mass density, 298.15 K [kg/m3] | mass density, 303.15 K [kg/m3] | mass density, 308.15 K [kg/m3] | speed of sound, 298.15 K [m/s] | speed of sound, 303.15 K [m/s] | speed of sound, 308.15 K [m/s]
x1 = 0.0935 | 884.2 | 879.51 | 874.8 | 1302 | 1281.3 | 1260.6
x1 = 0.1346 | 893.74 | 889.04 | 884.33 | 1301.2 | 1280.6 | 1260.2
x1 = 0.1681 | 901.47 | 896.76 | 892.04 | 1300.5 | 1280.2 | 1259.9
x1 = 0.2393 | 917.7 | 912.99 | 908.26 | 1299.5 | 1279.4 | 1259.3
x1 = 0.2782 | 926.47 | 921.75 | 917.02 | 1299 | 1279 | 1259
x1 = 0.3342 | 938.97 | 934.25 | 929.51 | 1298.5 | 1278.7 | 1258.8
x1 = 0.3871 | 950.65 | 945.92 | 941.17 | 1298.1 | 1278.5 | 1258.7
x1 = 0.4375 | 961.66 | 956.92 | 952.17 | 1297.9 | 1278.3 | 1258.7
x1 = 0.4872 | 972.41 | 967.66 | 962.89 | 1297.7 | 1278.3 | 1258.8
x1 = 0.5312 | 981.84 | 977.07 | 972.3 | 1297.6 | 1278.3 | 1259
x1 = 0.5912 | 994.55 | 989.78 | 984.99 | 1297.4 | 1278.4 | 1259.3
x1 = 0.6218 | 1001 | 996.2 | 991.4 | 1297.4 | 1278.5 | 1259.5
x1 = 0.6753 | 1012.1 | 1007.3 | 1002.5 | 1297.4 | 1278.7 | 1260
x1 = 0.7231 | 1022 | 1017.2 | 1012.3 | 1297.4 | 1278.9 | 1260.4
x1 = 0.7854 | 1034.7 | 1029.9 | 1025 | 1297.6 | 1279.2 | 1261
x1 = 0.8351 | 1044.7 | 1039.9 | 1035 | 1297.7 | 1279.5 | 1261.5
x1 = 0.8824 | 1054.2 | 1049.3 | 1044.5 | 1297.9 | 1279.8 | 1262
x1 = 0.9231 | 1062.3 | 1057.4 | 1052.5 | 1298.1 | 1280.1 | 1262.3

Cc1ccccc1C [1,2-dimethylbenzene] + C1CCOCC1
Conditions | mass density, 298.15 K [kg/m3] | mass density, 303.15 K [kg/m3] | speed of sound, 298.15 K [m/s] | speed of sound, 303.15 K [m/s]
x2 = 0.0908 | 876.43 | 872.06 | 1345.3 | 1323.7
x2 = 0.1432 | 876.68 | 872.25 | 1343.1 | 1321
x2 = 0.1897 | 876.87 | 872.4 | 1340.4 | 1317.9
x2 = 0.2318 | 877.04 | 872.53 | 1337.4 | 1314.7
x2 = 0.2953 | 877.26 | 872.71 | 1332.1 | 1309.2
x2 = 0.331 | 877.39 | 872.81 | 1328.8 | 1305.9
x2 = 0.3872 | 877.57 | 872.95 | 1323.2 | 1300.4
x2 = 0.4287 | 877.7 | 873.05 | 1319 | 1296.2
x2 = 0.4792 | 877.86 | 873.17 | 1313.7 | 1291
x2 = 0.5187 | 877.99 | 873.26 | 1309.6 | 1286.9
x2 = 0.5725 | 878.16 | 873.38 | 1304.1 | 1281.4
x2 = 0.6182 | 878.31 | 873.48 | 1299.5 | 1276.8
x2 = 0.6682 | 878.47 | 873.58 | 1294.6 | 1272
x2 = 0.7187 | 878.62 | 873.67 | 1290 | 1267.3
x2 = 0.7729 | 878.78 | 873.77 | 1285.3 | 1262.5
x2 = 0.8367 | 878.94 | 873.86 | 1280.2 | 1257.3
x2 = 0.8952 | 879.05 | 873.93 | 1276.1 | 1253.1
x2 = 0.9274 | 879.1 | 873.96 | 1274 | 1251

C1CCOCC1 [tetrahydropyran] + Cc1ccccc1
Conditions | mass density, 298.15 K [kg/m3] | mass density, 303.15 K [kg/m3] | speed of sound, 298.15 K [m/s] | speed of sound, 303.15 K [m/s]
x1 = 0.0834 | 863.93 | 859.19 | 1303.2 | 1281.1
x1 = 0.1245 | 864.77 | 859.99 | 1302.3 | 1280
x1 = 0.1765 | 865.79 | 860.99 | 1301.2 | 1278.7
x1 = 0.2387 | 866.99 | 862.15 | 1299.7 | 1277.1
x1 = 0.3017 | 868.16 | 863.3 | 1298.1 | 1275.3
x1 = 0.3541 | 869.11 | 864.23 | 1296.6 | 1273.8
x1 = 0.4098 | 870.1 | 865.2 | 1295 | 1272.2
x1 = 0.4467 | 870.74 | 865.83 | 1293.9 | 1271
x1 = 0.4915 | 871.51 | 866.59 | 1292.5 | 1269.5
x1 = 0.5487 | 872.47 | 867.53 | 1290.6 | 1267.5
x1 = 0.6008 | 873.33 | 868.36 | 1288.8 | 1265.6
x1 = 0.6472 | 874.08 | 869.09 | 1287.1 | 1263.7
x1 = 0.6954 | 874.84 | 869.83 | 1285.2 | 1261.8
x1 = 0.7321 | 875.41 | 870.38 | 1283.7 | 1260.2
x1 = 0.7832 | 876.18 | 871.13 | 1281.5 | 1257.9
x1 = 0.8241 | 876.78 | 871.71 | 1279.6 | 1255.9
x1 = 0.8937 | 877.76 | 872.65 | 1276.1 | 1252.5
x1 = 0.9205 | 878.12 | 873 | 1274.6 | 1251.1

C1CCOCC1 [tetrahydropyran] + c1ccccc1
Conditions | mass density, 298.15 K [kg/m3] | mass density, 303.15 K [kg/m3] | speed of sound, 298.15 K [m/s] | speed of sound, 303.15 K [m/s]
x1 = 0.0789 | 874.6 | 869.25 | 1298.9 | 1274
x1 = 0.1324 | 875.21 | 869.87 | 1298.2 | 1272.5
x1 = 0.1784 | 875.68 | 870.35 | 1297.5 | 1271.2
x1 = 0.2239 | 876.1 | 870.78 | 1296.6 | 1269.8
x1 = 0.2876 | 876.63 | 871.32 | 1295.2 | 1267.9
x1 = 0.3276 | 876.92 | 871.63 | 1294.2 | 1266.7
x1 = 0.3769 | 877.26 | 871.97 | 1292.9 | 1265.2
x1 = 0.4285 | 877.58 | 872.3 | 1291.4 | 1263.6
x1 = 0.4794 | 877.87 | 872.59 | 1289.8 | 1262
x1 = 0.5598 | 878.27 | 872.99 | 1287.2 | 1259.6
x1 = 0.6024 | 878.46 | 873.17 | 1285.8 | 1258.3
x1 = 0.6534 | 878.66 | 873.37 | 1284 | 1256.9
x1 = 0.7006 | 878.82 | 873.53 | 1282.3 | 1255.5
x1 = 0.7432 | 878.95 | 873.65 | 1280.7 | 1254.2
x1 = 0.7943 | 879.07 | 873.77 | 1278.8 | 1252.8
x1 = 0.8213 | 879.12 | 873.83 | 1277.7 | 1252
x1 = 0.8763 | 879.18 | 873.92 | 1275.4 | 1250.4
x1 = 0.9148 | 879.2 | 873.96 | 1273.7 | 1249.3

Cc1ccccc1Cl [2-chlorotoluene] + Cc1ccccc1C
Conditions | mass density, 298.15 K [kg/m3] | mass density, 303.15 K [kg/m3] | mass density, 308.15 K [kg/m3] | speed of sound, 298.15 K [m/s] | speed of sound, 303.15 K [m/s] | speed of sound, 308.15 K [m/s]
x1 = 0.0872 | 893.06 | 888.78 | 884.5 | 1341.6 | 1321.9 | 1302.1
x1 = 0.1276 | 901.04 | 896.73 | 892.42 | 1339.4 | 1319.8 | 1300.2
x1 = 0.1754 | 910.51 | 906.16 | 901.82 | 1337 | 1317.4 | 1298
x1 = 0.2243 | 920.22 | 915.84 | 911.46 | 1334.4 | 1315 | 1295.6
x1 = 0.2765 | 930.61 | 926.19 | 921.78 | 1331.8 | 1312.4 | 1293.1
x1 = 0.3241 | 940.11 | 935.66 | 931.22 | 1329.4 | 1310.1 | 1290.8
x1 = 0.3762 | 950.54 | 946.05 | 941.57 | 1326.8 | 1307.6 | 1288.4
x1 = 0.4216 | 959.64 | 955.13 | 950.62 | 1324.6 | 1305.4 | 1286.3
x1 = 0.4932 | 974.04 | 969.48 | 964.92 | 1321.2 | 1302.1 | 1283.1
x1 = 0.5243 | 980.31 | 975.73 | 971.15 | 1319.7 | 1300.7 | 1281.8
x1 = 0.5721 | 989.96 | 985.35 | 980.74 | 1317.5 | 1298.6 | 1279.8
x1 = 0.6158 | 998.81 | 994.17 | 989.52 | 1315.5 | 1296.7 | 1278
x1 = 0.6761 | 1011 | 1006.4 | 1001.7 | 1312.7 | 1294.1 | 1275.6
x1 = 0.7245 | 1020.9 | 1016.2 | 1011.4 | 1310.6 | 1292.1 | 1273.7
x1 = 0.7865 | 1033.5 | 1028.8 | 1024 | 1307.8 | 1289.6 | 1271.3
x1 = 0.8254 | 1041.5 | 1036.7 | 1031.9 | 1306.1 | 1288 | 1269.8
x1 = 0.8795 | 1052.5 | 1047.7 | 1042.9 | 1303.8 | 1285.8 | 1267.7
x1 = 0.9192 | 1060.7 | 1055.9 | 1051 | 1302.1 | 1284.1 | 1266.1
